Test results: patent publication US6054435A, “6-O-substituted macrolides having antibacterial activity” (priority 1999, dated 2000)
≈ marks a conversion by molar mass, not a printed value.

Experiments:
Experiment in all cases: in vitro antibacterial activity (MIC), agar dilution
Type in all cases: cell-based
Candida albicans CCH 442 = settings: organism code TT; BHI agar, 35-37° C., 20 to 24 hours; unit assumed
In short: (§1)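 BHI agar incorporation method; twelve compound concentrations. Streptococcus and other slow growers inoculated at 1:10, other strains at 1:100. Visual MIC read-out versus growth control.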

[1] = test system: Enterococcus faecium ATCC 8043; settings: organism code II; BHI agar, 35-37° C., 20 to 24 hours; unit assumed
In short: as §1

Escherichia coli DC-2 = settings: organism code SS; BHI agar, 35-37° C., 20 to 24 hours; unit assumed
In short: as §1

Escherichia coli JUHL = settings: organism code QQ; BHI agar, 35-37° C., 20 to 24 hours; unit assumed
In short: as §1

Escherichia coli SS = settings: organism code RR; BHI agar, 35-37° C., 20 to 24 hours; unit assumed
In short: as §1

[2] = test system: Haemophilis Influenzae DILL AMP R; settings: organism code WW; BHI agar, 35-37° C., 20 to 24 hours; unit assumed
In short: as §1

[3] = test system: Micrococcus luteus ATCC 4698; settings: organism code PP; BHI agar, 35-37° C., 20 to 24 hours; unit assumed
In short: (§2)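 Antibacterial MIC determined by agar dilution in BHI agar with twelve successive concentrations; controls comprised compound-free plates and a same-class reference antibiotic. MIC: lowest concentration giving no growth, slight haze or sparsely isolated colonies.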

[4] = test system: Micrococcus luteus ATCC 9341; settings: organism code OO; BHI agar, 35-37° C., 20 to 24 hours; unit assumed
In short: as §2

[5] = test system: Mycobacterium smegmatis ATCC 114; settings: organism code UU; BHI agar, 35-37° C., 20 to 24 hours; unit assumed
In short: as §1

[6] = test system: Nocardia Asteroides ATCC9970; settings: organism code VV; BHI agar, 35-37° C., 20 to 24 hours; unit assumed
In short: as §1

[7] = test system: Staphylococcus aureus 1775; settings: organism code GG; BHI agar, 35-37° C., 20 to 24 hours; unit assumed
In short: as §1

[8] = test system: Staphylococcus aureus A-5278; settings: organism code CC; BHI agar, 35-37° C., 20 to 24 hours; unit assumed
In short: as §1

[9] = test system: Staphylococcus aureus A5177; settings: organism code BB; BHI agar, 35-37° C., 20 to 24 hours; unit assumed
In short: as §1

[10] = test system: Staphylococcus aureus ATCC 6538P; settings: organism code AA; BHI agar, 35-37° C., 20 to 24 hours; unit assumed
In short: as §1

[11] = test system: Staphylococcus aureus CMX 553; settings: organism code FF; BHI agar, 35-37° C., 20 to 24 hours; unit assumed
In short: as §1

[12] = test system: Staphylococcus aureus CMX 642A; settings: organism code DD; BHI agar, 35-37° C., 20 to 24 hours; unit assumed
In short: as §1

[13] = test system: Staphylococcus aureus NCTC10649M; settings: organism code EE; BHI agar, 35-37° C., 20 to 24 hours; unit assumed
In short: as §1

[14] = test system: Staphylococcus epidermidis 3519; settings: organism code HH; BHI agar, 35-37° C., 20 to 24 hours; unit assumed
In short: as §1

[15] = test system: Streptococcus Pneumonia 5649; settings: organism code ZZA; BHI agar, 35-37° C., 20 to 24 hours; unit assumed
In short: as §1

[16] = test system: Streptococcus Pneumonia 5979; settings: organism code ZZ; BHI agar, 35-37° C., 20 to 24 hours; unit assumed
In short: as §1

[17] = test system: Streptococcus Pneumonia ATCC6303; settings: organism code XX; BHI agar, 35-37° C., 20 to 24 hours; unit assumed
In short: as §1

[18] = test system: Streptococcus Pneumonia GYR 1171; settings: organism code YY; BHI agar, 35-37° C., 20 to 24 hours; unit assumed
In short: as §1

[19] = test system: Streptococcus agalactiae CMX 508; settings: organism code KK; BHI agar, 35-37° C., 20 to 24 hours; unit assumed
In short: as §1

[20] = test system: Streptococcus bovis A-5169; settings: organism code JJ; BHI agar, 35-37° C., 20 to 24 hours; unit assumed
In short: as §1

[21] = test system: Streptococcus pyogenes 930; settings: organism code MM; BHI agar, 35-37° C., 20 to 24 hours; unit assumed
In short: as §1

[22] = test system: Streptococcus pyogenes EES61; settings: organism code LL; BHI agar, 35-37° C., 20 to 24 hours; unit assumed
In short: as §1

[23] = test system: Streptococcus pyogenes PIU 2548; settings: organism code NN; BHI agar, 35-37° C., 20 to 24 hours; unit assumed
In short: as §1

SMILES	MIC (Candida albicans CCH 442)	MIC [1]	MIC (Escherichia coli DC-2)	MIC (Escherichia coli JUHL)	MIC (Escherichia coli SS)	MIC [2]	MIC [3]	MIC [4]	MIC [5]	MIC [6]	MIC [7]	MIC [8]	MIC [9]	MIC [10]	MIC [11]	MIC [12]	MIC [13]	MIC [14]	MIC [15]	MIC [16]	further results
CC[C@H]1OC(=O)[C@H](C)C(=O)[C@H](C)[C@@H](O[C@@H]2O[C@H](C)C[C@H](N(C)C)[C@H]2O)[C@](C)(OC/C=C/c2cncc(-c3nccs3)c2)C[C@@H](C)C(=O)[C@H](C)[C@H]2NC(=O)O[C@@]21C [Example 51]	> 100 µg/mL	0.05 µg/mL (≈ 0.0626 µM)	25 µg/mL (≈ 31.3 µM)	100 µg/mL (≈ 125 µM)	0.2 µg/mL (≈ 0.25 µM)	2 µg/mL (≈ 2.5 µM)	0.2 µg/mL (≈ 0.25 µM)	0.01 µg/mL (≈ 0.0125 µM)	0.39 µg/mL (≈ 0.488 µM)	0.05 µg/mL (≈ 0.0626 µM)	> 100 µg/mL	> 100 µg/mL	0.05 µg/mL (≈ 0.0626 µM)	0.1 µg/mL (≈ 0.125 µM)	0.1 µg/mL (≈ 0.125 µM)	0.1 µg/mL (≈ 0.125 µM)	0.1 µg/mL (≈ 0.125 µM)	0.1 µg/mL (≈ 0.125 µM)	0.25 µg/mL (≈ 0.313 µM)	> 128 µg/mL	MIC [17]: ≤ 0.004 µg/mL; MIC [18]: ≤ 0.004 µg/mL; MIC [19]: 0.01 µg/mL (≈ 0.0125 µM); MIC [20]: 0.01 µg/mL (≈ 0.0125 µM); MIC [21]: 6.2 µg/mL (≈ 7.76 µM); MIC [22]: 0.02 µg/mL (≈ 0.025 µM); MIC [23]: 0.2 µg/mL (≈ 0.25 µM)
CC[C@H]1OC(=O)[C@H](C)C(=O)[C@H](C)[C@@H](O[C@@H]2O[C@H](C)C[C@H](N(C)C)[C@H]2O)[C@](C)(OC/C=C/c2cncc(-c3cncs3)c2)C[C@@H](C)C(=O)[C@H](C)[C@H]2NC(=O)O[C@@]21C [Example 52]	> 100 µg/mL	0.01 µg/mL (≈ 0.0125 µM)	25 µg/mL (≈ 31.3 µM)	100 µg/mL (≈ 125 µM)	0.39 µg/mL (≈ 0.488 µM)	2 µg/mL (≈ 2.5 µM)	0.2 µg/mL (≈ 0.25 µM)	0.01 µg/mL (≈ 0.0125 µM)	1.56 µg/mL (≈ 1.95 µM)	0.02 µg/mL (≈ 0.025 µM)	> 100 µg/mL	> 100 µg/mL	0.05 µg/mL (≈ 0.0626 µM)	0.05 µg/mL (≈ 0.0626 µM)	0.05 µg/mL (≈ 0.0626 µM)	0.05 µg/mL (≈ 0.0626 µM)	0.05 µg/mL (≈ 0.0626 µM)	0.05 µg/mL (≈ 0.0626 µM)	0.25 µg/mL (≈ 0.313 µM)	> 128 µg/mL	MIC [17]: ≤ 0.004 µg/mL; MIC [18]: ≤ 0.004 µg/mL; MIC [19]: ≤ 0.005 µg/mL; MIC [20]: 0.01 µg/mL (≈ 0.0125 µM); MIC [21]: 100 µg/mL (≈ 125 µM); MIC [22]: 0.02 µg/mL (≈ 0.025 µM); MIC [23]: 0.1 µg/mL (≈ 0.125 µM)
CC[C@H]1OC(=O)[C@H](C)C(=O)[C@H](C)[C@@H](O[C@@H]2O[C@H](C)C[C@H](N(C)C)[C@H]2O)[C@](C)(OC/C=C/c2ccc(-c3cnc(N)s3)s2)C[C@@H](C)C(=O)[C@H](C)[C@H]2NC(=O)O[C@@]21C [Example 53]	> 100 µg/mL	0.05 µg/mL (≈ 0.061 µM)	25 µg/mL (≈ 30.5 µM)	50 µg/mL (≈ 61 µM)	0.2 µg/mL (≈ 0.244 µM)	8 µg/mL (≈ 9.77 µM)	0.1 µg/mL (≈ 0.122 µM)	0.01 µg/mL (≈ 0.0122 µM)	3.1 µg/mL (≈ 3.78 µM)	0.1 µg/mL (≈ 0.122 µM)	> 100 µg/mL	> 100 µg/mL	0.1 µg/mL (≈ 0.122 µM)	0.1 µg/mL (≈ 0.122 µM)	0.1 µg/mL (≈ 0.122 µM)	0.1 µg/mL (≈ 0.122 µM)	0.1 µg/mL (≈ 0.122 µM)	0.1 µg/mL (≈ 0.122 µM)	1 µg/mL (≈ 1.22 µM)	16 µg/mL (≈ 19.5 µM)	MIC [17]: 0.03 µg/mL (≈ 0.0366 µM); MIC [18]: 0.03 µg/mL (≈ 0.0366 µM); MIC [19]: 0.01 µg/mL (≈ 0.0122 µM); MIC [20]: 0.01 µg/mL (≈ 0.0122 µM); MIC [21]: 12.5 µg/mL (≈ 15.3 µM); MIC [22]: ≤ 0.005 µg/mL; MIC [23]: 0.1 µg/mL (≈ 0.122 µM)
CC[C@H]1OC(=O)[C@H](C)C(=O)[C@H](C)[C@@H](O[C@@H]2O[C@H](C)C[C@H](N(C)C)[C@H]2O)[C@](C)(OC/C=C/c2ncc(-c3cccnc3)s2)C[C@@H](C)C(=O)[C@H](C)[C@H]2NC(=O)O[C@@]21C [Example 54]	> 100 µg/mL	0.02 µg/mL (≈ 0.025 µM)	25 µg/mL (≈ 31.3 µM)	1.56 µg/mL (≈ 1.95 µM)	0.2 µg/mL (≈ 0.25 µM)	2 µg/mL (≈ 2.5 µM)	0.05 µg/mL (≈ 0.0626 µM)	0.01 µg/mL (≈ 0.0125 µM)	3.1 µg/mL (≈ 3.88 µM)	0.01 µg/mL (≈ 0.0125 µM)	> 100 µg/mL	> 100 µg/mL	0.05 µg/mL (≈ 0.0626 µM)	0.05 µg/mL (≈ 0.0626 µM)	0.05 µg/mL (≈ 0.0626 µM)	0.05 µg/mL (≈ 0.0626 µM)	0.1 µg/mL (≈ 0.125 µM)	0.05 µg/mL (≈ 0.0626 µM)	0.25 µg/mL (≈ 0.313 µM)	4 µg/mL (≈ 5.01 µM)	MIC [17]: 0.03 µg/mL (≈ 0.0375 µM); MIC [18]: 0.03 µg/mL (≈ 0.0375 µM); MIC [19]: ≤ 0.005 µg/mL; MIC [20]: ≤ 0.005 µg/mL; MIC [21]: 100 µg/mL (≈ 125 µM); MIC [22]: ≤ 0.005 µg/mL; MIC [23]: 0.1 µg/mL (≈ 0.125 µM)
